# Laboratory results reported in patent publication US6071884A, “Pharmaceutical compositions and therapeutic methods” (Kirin Beer Kabushiki Kaisha, priority 1992, dated 2000).
# Key:
# [1] = system: mononuclear cell fraction of human umbilical cord blood; assay: Proliferation-stimulating effect on mononuclear cell fraction of human umbilical cord blood (3H-TdR uptake); type: cell-based; conditions: 96 h, percentage of control, 4 days
# In short: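 Umbilical cord blood MNF (Lymphoprep) cultured at 1×10^6 cells/ml in RPMI 1640 with 10% autologous plasma with sample for 4 days at 37° C, 5% CO2. 0.5 μCi/well 3H-TdR then added for 8 h, and nuclear uptake measured by liquid scintillation counting.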
# [2] = Life-span-increasing effect on irradiation of a lethal dose of radiation; type: in vivo, mouse (BDF1); conditions: 10 mice/group, 9 Gy X-ray, 0.1 mg/kg i.v. days 0, 4, 8
# Experimental: Pharmacological Test 4: Life-Span-Increasing Effect on Irradiation of a Lethal Dose of Radiation
# An experiment was carried out by using 6 week old female BDF1 mice purchased from Japan SLC Co., Ltd., with 10 mice made one group.
# The entire bodies of the entire body of the mice were irradiated with 9 Gy of X-rays by using a Hitachi X-ray irradiator (MBR-1520R), and the day on which the X-ray was irradiated was referred to as "day 0".
# blood platelets [3] = assay: Thrombocytopenia-inhibiting effect in X-ray-irradiated mice; type: in vivo, mouse (BDF1); conditions: 10 days after 5 Gy X-ray; 0.1 mg/kg i.v. within 2 h; mean ± SD; vehicle per series 10.3, 6.8, 6.7; non-treatment 68.2, 96.9, 73.0
# In short: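 Female BDF1 mice, 6 weeks old, six per group, given 5 Gy whole-body X-ray, then 0.1 mg/kg i.v. via tail vein within 2 hours. Platelets counted by hemocytometer in fundus-vein blood 10 days later; untreated and vehicle groups run alongside.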
# blood platelets [4] = assay: Blood-platelet-increasing effect upon normal mouse; type: in vivo, mouse (BDF1); conditions: normal mice; 6 days after 0.1 mg/kg i.v.; mean ± SD; vehicle per series 58.2, 63.0, 71.1
# In short: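 Female BDF1 mice, 6 weeks old (5 per group), received test sample at 0.1 mg/kg into the caudal vein. Six days later, fundus-vein blood was taken and platelets counted on a multi-channel hemocytometer, compared against vehicle-treated animals.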
# blood platelets [5] = assay: Blood-platelet-increasing effect upon monkey; type: in vivo, croo monkey; conditions: for Number of Blood Platelets: mean ± SD
# Experimental: Subsequently, in order to examine the effect on Primates, the effect of Compound 33 was examined as a representative of the compounds represented by the formula (A), by using normal croo monkeys.
# (§1) Pharmacological Test 7: Blood-Platelet-Increasing Effect upon Monkey
# (§2) Six croo monkeys (female, 3 to 5 years old, 2.3 to 2.8 kg), 2 monkeys in one group were used. A vehicle, 0.1 mg/body of the compound 33 or 1 mg/body of the compound 33 was intravenously administered to the monkeys. 6 and 9 days after the administration, blood was collected by using a blood-collecting tube EDTA-2K, and the numbers of blood platelets, white blood cells and red blood cells contained in the peripheral blood were measured by using an E-2500/cs. The results are shown in Tables 7-1, 7-2 and 7-3, respectively.
# white blood cells = assay: White blood cell count in monkey; type: in vivo, croo monkey; conditions: for Number of White Blood Cells: mean ± SD
# Experimental: as §1, §2
# Acute toxicity = type: in vivo; conditions: 7 days
# Experimental: Test Example 2: Acute Toxicity
# 0.1, 1.0 or 10 mg/kg of Compound 5 or 33 was intravenously administered to Crj:CD rats (male, 5 weeks old), 6 rats in one group. 7 days after the administration, a toxicity test was carried out.
smiles,measurement,setting,value
"CCCCCCCCCCCCCCCCCCCCCCCCCC(=O)N[C@@H](CO[C@H]1O[C@H](CO)[C@H](O)[C@H](O)[C@H]1O)[C@H](O)[C@H](O)CCCCCCCCCCCCCC [Compound 33, (2S,3S,4R)-1-(α-D-galactopyranosyloxy)-2-hexacosanoylamino-3,4-octadecanediol]",activity at 0.1 µg/mL,[1]; 10^-1 μg/ml,409%
same,activity at 0.01 µg/mL,[1]; 10^-2 μg/ml,256%
same,activity at 0.001 µg/mL,[1]; 10^-3 μg/ml,228%
same,Number of Surviving Mice,"[2]; day 10, controls per series 10, 10, 10, 10, 10, 8",10 mice
same,Number of Surviving Mice,"[2]; day 15, controls per series 8, 9, 5, 5, 7, 1",8 mice
same,Number of Surviving Mice,"[2]; day 20, controls per series 4, 5, 1, 2, 3, 0",7 mice
same,Number of Surviving Mice,"[2]; day 25, controls per series 3, 3, 0, 0, 2, 0",5 mice
same,Number of Surviving Mice,"[2]; day 30, controls per series 1, 1, 0, 0, 0, 0",5 mice
same,Number of Surviving Mice,"[2]; day 35, all controls 0",5 mice
same,Number of Surviving Mice,"[2]; day 40, all controls 0",5 mice
same,Number of Blood Platelets,blood platelets [3],23.9 ± 6.5 × 10^4 /μl
same,Number of Blood Platelets,blood platelets [4],142.3 ± 10.2 × 10^4 /μl
same,Number of Blood Platelets,"blood platelets [5]; 0.1 mg/body i.v., after 6 days, vehicle 37.8 ± 8.5",56.4 ± 5.2 × 10^4 /μl
same,Number of Blood Platelets,"blood platelets [5]; 0.1 mg/body i.v., after 9 days, vehicle 37.4 ± 12.4",52.4 ± 9.0 × 10^4 /μl
same,blood-platelet-increasing effect (in words),"blood platelets [5]; 0.1 mg/body, almost equal to 1 mg/body",remarkable blood-platelet-increasing effect
same,Number of Blood Platelets,"blood platelets [5]; 1 mg/body i.v., after 6 days, vehicle 37.8 ± 8.5",62.1 ± 15.9 × 10^4 /μl
same,Number of Blood Platelets,"blood platelets [5]; 1 mg/body i.v., after 9 days, vehicle 37.4 ± 12.4",64.7 ± 23.7 × 10^4 /μl
same,Number of White Blood Cells,"white blood cells; 0.1 mg/body i.v., after 6 days, vehicle 91 ± 31",156 ± 1 × 10^2 /μl
same,Number of White Blood Cells,"white blood cells; 0.1 mg/body i.v., after 9 days, vehicle 94 ± 57",105 ± 15 × 10^2 /μl
same,white-blood-cell-increasing effect (in words),"white blood cells; 0.1 mg/body, 6 days after administration, equal to 1 mg/body",remarkable white-blood-cell-increasing effect
same,Number of White Blood Cells,"white blood cells; 1 mg/body i.v., after 6 days, vehicle 91 ± 31",150 ± 37 × 10^2 /μl
same,Number of White Blood Cells,"white blood cells; 1 mg/body i.v., after 9 days, vehicle 94 ± 57",169 ± 21 × 10^2 /μl
same,death of rats,Acute toxicity; 10 mg/kg i.v.,the rats did not die
same,post-mortem examination,"Acute toxicity; i.v. 0.1, 1.0 or 10 mg/kg",no abnormality was found
same,LD50 at 168 h,"Acute toxicity; rat, in vivo, iv, male rats",≥ 10 mg/kg
